We go through 10 molecules from ChEMBL document CHEMBL1201862, “PubChem BioAssay data set” (2004).

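Dose response: 5 concentrations. Exposure: 48 h. Format: 96-well plates. Endpoint: linear interpolation; highest concentration if not reached. Abbreviation: GI50, concentration required for 50% inhibition of growth.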 Activity calls are given as the source filed them. Cut-off read from the data, not from the text of the source: active = GI50 up to about 1.1 µM and inactive = higher.

Test systems include CCRF-CEM; HCC 2998; HOP-62; K562; KM12; MDA-MB-435; MOLT-4; Malme-3M; NCI-H226; NCI-H460; NCI-H522; NCI/ADR-RES; OVCAR-4; OVCAR-8; RPMI-8226; RXF 393; SF-295; SNB-75; T47D; UACC-257.
Assay in all cases: growth of human tumour cells (NCI), 48 h

Consider `O=C(CSc1nc2ccc([N+](=O)[O-])cc2s1)c1ccc2ccccc2c1`, for which the GI50 in the test with CCRF-CEM was 84.5 µM (inactive); in the test with HCC 2998, > 100 µM (inactive); in the test on HOP-62 it was > 100 µM (inactive); in the test with K562, 84.9 µM (inactive); with KM12, > 100 µM (inactive); in the test with MDA-MB-435 it was > 100 µM (inactive). For the same molecule, the GI50 is 74.6 µM (inactive) with MOLT-4; > 100 µM (inactive) with Malme-3M; > 100 µM (inactive) in the test with NCI-H226; > 100 µM (inactive) in the test with NCI-H460; > 100 µM (inactive) in the test with NCI-H522; > 100 µM (inactive) in the test with NCI/ADR-RES. The GI50 with OVCAR-4 was 41.2 µM (inactive); with OVCAR-8, 37.4 µM (inactive); with RPMI-8226, > 100 µM (inactive); in the test with RXF 393 it was > 100 µM (inactive); in the test on SF-295 it was 93.1 µM (inactive); in the test on SNB-75, > 100 µM (inactive). Moreover, the GI50 with T47D and with UACC-257 was > 100 µM (inactive) each time.
Consider `CC(C)(C)N(Cc1ccc2c(c1)OCO2)C(=O)/C=C\[S+]([O-])c1ccccc1` (stereo not given), for which the GI50 is 0.83 µM (active) in the test on CCRF-CEM; 4.45 µM (inactive) with HCC 2998; 4.88 µM (inactive) with HOP-62; 2.9 µM (inactive) in the test with K562; 3.85 µM (inactive) in the test with KM12; 2.12 µM (inactive) in the test with MDA-MB-435. In addition, the GI50 in the test with MOLT-4 is 2.3 µM (inactive); in the test on Malme-3M it was 1.91 µM (inactive); in the test with NCI-H226 it was 2.74 µM (inactive); with NCI-H460 it was 4.19 µM (inactive); with NCI-H522, 0.516 µM (active); in the test with NCI/ADR-RES it was 2.48 µM (inactive). Also, the GI50 with OVCAR-4 is 3.1 µM (inactive); in the test on OVCAR-8, 2.03 µM (inactive); in the test with RPMI-8226 it was 1.67 µM (inactive); with RXF 393 it was 1.91 µM (inactive); with SF-295 it was 9.79 µM (inactive); in the test on SNB-75, 2.99 µM (inactive). The GI50 was 2.56 µM (inactive) with T47D and 3.48 µM (inactive) in the test with UACC-257.
In the case of `COc1ccc(-c2nc(-c3cc4ccccc4oc3=O)cs2)cc1`, the GI50 in the test with CCRF-CEM is > 100 µM (inactive); in the test with HCC 2998 it was 77.8 µM (inactive); in the test on HOP-62, 32 µM (inactive); in the test on K562, > 100 µM (inactive); with KM12, > 100 µM (inactive); in the test with MDA-MB-435, > 100 µM (inactive). The GI50 was > 100 µM (inactive) in the test on MOLT-4; > 100 µM (inactive) with Malme-3M; > 100 µM (inactive) in the test with NCI-H226; 59.2 µM (inactive) in the test with NCI-H460; > 100 µM (inactive) with NCI-H522; 47.9 µM (inactive) in the test with NCI/ADR-RES. Also, the GI50 with OVCAR-4 is > 100 µM (inactive); with OVCAR-8, 23.2 µM (inactive); in the test on RPMI-8226, > 100 µM (inactive); in the test with RXF 393, 85.3 µM (inactive); in the test on SF-295, > 100 µM (inactive); in the test on SNB-75 it was 52.2 µM (inactive). Moreover, the GI50 with T47D and with UACC-257 was > 100 µM (inactive) each time.
For the molecule `O=Cc1c2ccccc2n2ccc3c4ccccc4[nH]c3c12`, the GI50 was > 10 µM (inactive) in the test with CCRF-CEM; > 10 µM (inactive) in the test on HCC 2998; > 10 µM (inactive) in the test with HOP-62; > 10 µM (inactive) in the test on K562; 0.344 µM (active) with KM12; > 10 µM (inactive) in the test on MDA-MB-435. The GI50 with MOLT-4, with Malme-3M, with NCI-H226, in the test with NCI-H460, in the test on NCI-H522 and with NCI/ADR-RES was > 10 µM (inactive) in each case. The GI50 in the test on OVCAR-4, with OVCAR-8, with RPMI-8226, in the test on RXF 393, in the test with SF-295 and with SNB-75 was > 10 µM (inactive) in each case. In addition, the GI50 with T47D and in the test on UACC-257 was > 10 µM (inactive) each time.
`COc1ccc2c3c1OC1C(OC)(OC)C=C[C@@]4(Br)[C@@H](C2)N(CC2CC2)CC[C@]314` (stereo not given in full): the GI50 is 86.9 µM (inactive) with CCRF-CEM; > 100 µM (inactive) with HCC 2998; > 100 µM (inactive) in the test with HOP-62; 52.8 µM (inactive) in the test with K562; > 100 µM (inactive) with KM12; 61.2 µM (inactive) in the test on MDA-MB-435. Moreover, the GI50 in the test with MOLT-4 was 80.7 µM (inactive); with Malme-3M it was 37.1 µM (inactive); with NCI-H226, 58.5 µM (inactive); in the test with NCI-H460, 62.7 µM (inactive); in the test with NCI-H522 it was 21 µM (inactive); with NCI/ADR-RES it was > 100 µM (inactive). Further, the GI50 in the test with OVCAR-4 was 43.7 µM (inactive); with OVCAR-8 it was 61.4 µM (inactive); with RPMI-8226 it was > 100 µM (inactive); in the test on RXF 393 it was 76.4 µM (inactive); with SF-295, > 100 µM (inactive); in the test on SNB-75, 96.4 µM (inactive). For the same molecule, the results for the GI50 in the test with T47D and in the test on UACC-257 were 97.9 µM (inactive) and 69.8 µM (inactive), respectively.
In the case of `CC[C@]1(Cc2ccc(OC)c(OC)c2)C=[N+]([O-])O[C@H](OCc2ccccc2)[C@@H]1OC(C)=O`, the GI50 with CCRF-CEM was 19.6 µM (inactive); with HCC 2998, 45.7 µM (inactive); with HOP-62, 34.2 µM (inactive); with K562, 20.9 µM (inactive); with KM12, 22.2 µM (inactive); with MDA-MB-435, 38.4 µM (inactive). The GI50 is 6.34 µM (inactive) with MOLT-4; 20.7 µM (inactive) in the test with Malme-3M; 19.3 µM (inactive) in the test with NCI-H226; 31 µM (inactive) in the test on NCI-H460; 12.4 µM (inactive) with NCI-H522; 33.3 µM (inactive) with NCI/ADR-RES. For the same molecule, the GI50 was 24.1 µM (inactive) in the test on OVCAR-4; 30.3 µM (inactive) in the test on OVCAR-8; 18.2 µM (inactive) in the test with RPMI-8226; 18.2 µM (inactive) in the test with RXF 393; 53.6 µM (inactive) in the test on SF-295; 30.5 µM (inactive) in the test with SNB-75. Moreover, the GI50 in the test with T47D was 20 µM (inactive); with UACC-257, 21.3 µM (inactive).
With `O=C(N/N=C(COc1ccccc1Cl)\N=C\c1cccnc1)c1ccncc1`, the GI50 with CCRF-CEM, in the test with HCC 2998, with HOP-62, in the test with K562, with KM12 and in the test on MDA-MB-435 was > 100 µM (inactive) in each case. For the same molecule, the GI50 in the test on MOLT-4, in the test on Malme-3M, in the test with NCI-H226, in the test on NCI-H460, with NCI-H522 and in the test with NCI/ADR-RES was > 100 µM (inactive) in each case. Also, the GI50 in the test on OVCAR-4, with OVCAR-8, with RPMI-8226, with RXF 393, in the test with SF-295 and with SNB-75 was > 100 µM (inactive) throughout. The GI50 in the test with T47D and in the test with UACC-257 was > 100 µM (inactive) each time.
Take `COc1cc([C@@H]2c3cc4c(cc3[C@H](OC3OC5COC(C(C)C)OC5C(O)C3O)C3COC(=O)[C@@H]32)OCO4)cc(OC)c1OC` (stereo not given in full): the GI50 with CCRF-CEM is 3.49 µM (inactive); in the test with HCC 2998 it was 5.16 µM (inactive); with HOP-62 it was 7.24 µM (inactive); with K562 it was 3.19 µM (inactive); in the test on KM12 it was 3.61 µM (inactive); in the test on MDA-MB-435, 4.37 µM (inactive). For the same molecule, the GI50 in the test with MOLT-4 was 4.84 µM (inactive); with Malme-3M, 4.57 µM (inactive); with NCI-H226, 2.96 µM (inactive); in the test on NCI-H460 it was 2.34 µM (inactive); with NCI-H522, 3.24 µM (inactive); in the test on NCI/ADR-RES, 3.19 µM (inactive). Moreover, the GI50 in the test with OVCAR-4 was 16.6 µM (inactive); in the test with OVCAR-8 it was 4.13 µM (inactive); in the test on RPMI-8226, 5.71 µM (inactive); in the test with RXF 393, 2.3 µM (inactive); with SF-295 it was 3.47 µM (inactive); in the test on SNB-75 it was 11.6 µM (inactive). The GI50 in the test with T47D was 12.7 µM (inactive); with UACC-257 it was 5.01 µM (inactive).
`C=C(Cl)C(Cl)(CBr)CCC(Cl)C(C)C` (stereo not given): the GI50 is 26.9 µM (inactive) in the test with CCRF-CEM; 4.22 µM (inactive) in the test with HCC 2998; 1.25 µM (inactive) with HOP-62; 30.8 µM (inactive) with K562; 1.23 µM (inactive) in the test on KM12; 6.98 µM (inactive) in the test with MDA-MB-435. Also, the GI50 was > 39.9 µM (inactive) with MOLT-4; 8.28 µM (inactive) in the test on Malme-3M; 30 µM (inactive) in the test with NCI-H226; 1.98 µM (inactive) in the test on NCI-H460; 5.93 µM (inactive) in the test with NCI-H522; 8.55 µM (inactive) in the test on NCI/ADR-RES. Besides, the GI50 was 8.17 µM (inactive) in the test with OVCAR-4; 3.19 µM (inactive) in the test with OVCAR-8; 0.138 µM (active) with RPMI-8226; 6.3 µM (inactive) in the test with RXF 393; 2.22 µM (inactive) with SF-295; 0.323 µM (active) in the test on SNB-75. Moreover, the GI50 in the test with T47D is 0.156 µM (active); with UACC-257, 1.37 µM (inactive).
Turning to `O=C(N/C(=C\c1ccccc1)c1nc2ccccc2c(=O)o1)c1ccccc1`, the GI50 in the test on CCRF-CEM was > 100 µM (inactive); in the test with HCC 2998, > 100 µM (inactive); in the test on HOP-62, > 52.5 µM (inactive); with K562, > 100 µM (inactive); in the test with KM12, 7.96 µM (inactive); in the test on MDA-MB-435, 23.6 µM (inactive). Further, the GI50 in the test with MOLT-4 is > 100 µM (inactive); with Malme-3M, > 100 µM (inactive); in the test with NCI-H226 it was > 67.6 µM (inactive); in the test with NCI-H460 it was > 72.6 µM (inactive); in the test on NCI-H522 it was 38.9 µM (inactive); in the test on NCI/ADR-RES, 33.4 µM (inactive). Also, the GI50 is > 88.5 µM (inactive) with OVCAR-4; > 57.7 µM (inactive) with OVCAR-8; > 100 µM (inactive) in the test with RPMI-8226; > 62.5 µM (inactive) with RXF 393; 36.2 µM (inactive) with SF-295; 20.4 µM (inactive) with SNB-75. For the same molecule, the GI50 with T47D was > 28.6 µM (inactive); in the test with UACC-257, > 43.1 µM (inactive).
